Results taken from the supplement of paper PMC10307832.

Tests used:
Test in all cases: relative viability (nuclei count vs DMSO), 5 days (fraction); higher = more cells survive
[1] = compound: C/C(=N\NC(=S)N1CCC1)/C2=CC=CC=N2 + COc1cc2c(Oc3ccc(NC(=O)C4(C(=O)Nc5ccc(F)cc5)CC4)cc3F)ccnc2cc1OCCCN1CCOCC1 [Foretinib] (partner 0.25 µM)
How it was run: (§1)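 Lung cancer cell lines in 1536-well plates got either a single drug or a fixed anchor-drug dose together with five library-drug doses (not always all listed) in √10 steps, by pin tool, on the day after seeding. Nuclei were counted after 5 days, and relative viability is the treated-to-vehicle ratio of nuclei counts. Values are medians of duplicate plates.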

[2] = compound: C/C(=N\NC(=S)N1CCC1)/C2=CC=CC=N2 + CCNC(=O)c1noc(-c2cc(C(C)C)c(O)cc2O)c1-c1ccc(CN2CCOCC2)cc1 [Luminespib] (partner 0.01 µM)
How it was run: as §1

[3] = compound: C/C(=N\NC(=S)N1CCC1)/C2=CC=CC=N2 + Cc1nc(Nc2ncc(C(=O)Nc3c(C)cccc3Cl)s2)cc(N2CCN(CCO)CC2)n1 [Dasatinib] (partner 0.075 µM)
How it was run: as §1

[4] = compound: C/C(=N\NC(=S)N1CCC1)/C2=CC=CC=N2 + Nc1ncn([C@H]2C[C@H](O)[C@@H](CO)O2)c(=O)n1 [Decitabine] (partner 2 µM)
How it was run: as §1

| Cell Line | relative viability ([1]; first compound 0.05 µM) | relative viability ([1]; first compound 0.1581 µM) | relative viability ([1]; first compound 0.5 µM) | relative viability ([1]; first compound 1.581 µM) | relative viability ([1]; first compound 5 µM) | relative viability ([2]; first compound 0.05 µM) | relative viability ([2]; first compound 0.1581 µM) | relative viability ([2]; first compound 0.5 µM) | relative viability ([2]; first compound 1.581 µM) | relative viability ([2]; first compound 5 µM) | relative viability ([3]; first compound 0.05 µM) | relative viability ([3]; first compound 0.1581 µM) | relative viability ([3]; first compound 0.5 µM) | relative viability ([3]; first compound 1.581 µM) | relative viability ([3]; first compound 5 µM) | relative viability ([4]; first compound 0.05 µM) | relative viability ([4]; first compound 0.1581 µM) | relative viability ([4]; first compound 0.5 µM) | relative viability ([4]; first compound 1.581 µM) | relative viability ([4]; first compound 5 µM) |
| --- | --- | --- | --- | --- | --- | --- | --- | --- | --- | --- | --- | --- | --- | --- | --- | --- | --- | --- | --- | --- |
| 201T | 0.213 | 0.209 | 0.19 | 0.181 | 0.177 | 0.394 | 0.394 | 0.35 | 0.322 | 0.256 | 0.324 | 0.29 | 0.282 | 0.232 | 0.216 | 0.553 | 0.802 | 0.348 | 0.29 | 0.28 |
| A549 | 0.0523 | 0.0338 | 0.0289 | 0.0404 | 0.0168 | – | – | – | – | – | – | – | – | – | – | 0.0459 | 0.0345 | 0.0375 | 0.0441 | 0.0197 |
| A-427 | 0.146 | 0.185 | 0.172 | 0.122 | 0.124 | 0.153 | 0.147 | 0.139 | 0.155 | 0.155 | 0.144 | 0.124 | 0.132 | 0.0986 | 0.117 | 0.182 | 0.214 | 0.194 | 0.171 | 0.17 |
| ABC-1 | 0.13 | 0.243 | 0.197 | 0.207 | 0.208 | 0.224 | 0.264 | 0.291 | 0.145 | 0.316 | 0.213 | 0.306 | 0.195 | 0.193 | 0.225 | 0.343 | 0.373 | 0.385 | 0.381 | 0.287 |
| BEN | 0.17 | 0.204 | 0.175 | 0.171 | 0.205 | 0.113 | 0.19 | 0.0969 | 0.12 | 0.0243 | 0.142 | 0.187 | 0.177 | 0.171 | 0.153 | 0.253 | 0.338 | 0.318 | 0.266 | 0.359 |
| CAL-12T | 0.184 | 0.21 | 0.146 | 0.161 | 0.138 | 0.138 | 0.147 | 0.0989 | 0.105 | 0.112 | 0.0937 | 0.0896 | 0.054 | 0.0962 | 0.0819 | – | – | – | – | – |
| COR-L23 | 0.147 | 0.132 | 0.14 | 0.0938 | 0.0923 | 0.102 | 0.0984 | 0.0928 | 0.0829 | 0.0974 | 0.102 | 0.095 | 0.0719 | 0.0707 | 0.0937 | 0.156 | 0.149 | 0.161 | 0.106 | 0.0995 |
| COR-L 105 | 0.33 | 0.312 | 0.382 | 0.233 | 0.268 | 0.227 | 0.247 | 0.259 | 0.167 | 0.265 | 0.178 | 0.254 | 0.243 | 0.176 | 0.185 | 0.31 | 0.413 | 0.327 | 0.306 | 0.313 |
| Calu-6 | 0.0699 | 0.0625 | 0.0749 | 0.0997 | 0.0865 | – | – | – | – | – | – | – | – | – | – | – | – | – | – | – |
| ChaGo-K-1 | 0.217 | 0.24 | 0.211 | 0.176 | 0.171 | 0.167 | 0.172 | 0.174 | 0.139 | 0.161 | 0.137 | 0.178 | 0.17 | 0.131 | 0.168 | 0.159 | 0.321 | 0.147 | 0.174 | 0.178 |
| EBC-1 | 0.0973 | 0.107 | 0.131 | 0.0785 | 0.0979 | – | – | – | – | – | – | – | – | – | – | – | – | – | – | – |
| EKVX | 0.0957 | 0.192 | 0.118 | 0.104 | 0.984 | 0.0986 | 0.123 | 0.114 | 0.119 | 0.143 | 0.186 | 0.174 | 0.164 | 0.172 | 0.192 | 0.15 | 0.138 | 0.13 | 0.138 | 0.16 |
| EMC-BAC-2 | 0.209 | 0.261 | 0.246 | 0.183 | 0.237 | 0.217 | 0.225 | 0.177 | 0.19 | 0.232 | 0.149 | 0.169 | 0.175 | 0.129 | 0.186 | 0.261 | 0.268 | 0.228 | 0.219 | 0.212 |
| EPLC-272H | 0.0785 | 0.069 | 0.1 | 0.0473 | 0.0779 | 0.105 | 0.105 | 0.192 | 0.203 | 0.165 | 0.086 | 0.079 | 0.117 | 0.0523 | 0.0578 | 0.123 | 0.111 | 0.109 | 0.062 | 0.101 |
| H3255 | 0.241 | 0.245 | 0.241 | 0.242 | 0.29 | 0.21 | 0.262 | 0.232 | 0.176 | 0.302 | 0.355 | 0.347 | 0.258 | 0.225 | 0.392 | 0.211 | 0.231 | 0.24 | 0.209 | 0.228 |
